Data reported in patent US20050049210A1, “Methods for the controlled delivery of pharmacologically active compounds” (IDEXX Laboratories, Inc., priority 2003, published 2005).

Legend:
[1] = Solubility of fatty acid salt in water immiscible solvent; assay type: physicochemical; details: amine group neutralized with linoleic acid, in isopropyl myristate
Source text: Oxytetracycline has one tertiary amine group, and the hydrochloride salt of oxytetracycline is readily soluble in water. Adding one mole of fatty acid to one mole of oxytetracycline creates a salt that is more soluble than unmodified oxytetracycline in isopropyl myristate.
When the two amine groups of tilmicosin are neutralized with any of several fatty acids (such as, for example, decanoic C10, lauric C12, myristic C14, palmitic C16, stearic C18, oleic C18, elaidic C18, linoleic C18, and erucic C22, sebacic, dodecanedioic), the resulting salt is soluble in pharmaceutically-acceptable water immiscible solvents. When a formulation of the salt (tilmicosin-linoleic acid) is sealed in a dialysis cassette and place in saline, the tilmicosin salt remains a cohesive mass, and tilmicosin is slowly released from the bag. The rate of release is a function of the chain length of the fatty acid, the solvent, and the tilmicosin-fatty acid salt concentration.
Roxithromycin is effective against a broad range of bacteria, and is used for the treatment of respiratory diseases in cattle. The amine group of roxithromycin can be neutralized with linoleic acid in isopropyl myristate, and a clear solution is obtained at 200 mg/ml.
Terbinafine is a specific inhibitor of squaline epoxidase, a key enzyme in fungal ergosterol biosynthesis. […]

[2] = Solubility of salt in water; assay type: physicochemical; details: linoleic acid salt
Procedure: Terbinafine is a specific inhibitor of squaline epoxidase, a key enzyme in fungal ergosterol biosynthesis. The amine group of terbinafine was neutralized with linoleic acid in ispropyl myristate, resulting in a clear solution at 150 mg/ml.

dogs = details: tilmicosin in conventional form; cited from earlier work

Compound	concentration at which a clear solution is obtained [1] [µg/mL]	solubility of the resulting salt in water [2]	dose normally lethal in dogs (dogs) [mg/kg]
CC[C@H]1OC(=O)[C@H](C)[C@@H](OC2CC(C)(OC)C(O)C(C)O2)[C@H](C)[C@@H](OC2OC(C)CC(N(C)C)C2O)[C@](C)(O)C[C@@H](C)/C(=N\OCOCCOC)[C@H](C)[C@@H](O)[C@]1(C)O (stereo partly shown) [roxithromycin, Roxithromycin]	200000	–	–
CN(C/C=C/C#CC(C)(C)C)Cc1cccc2ccccc12 [terbinafine, Terbinafine]	150000	highly insoluble	–
Tilmicosin	–	–	50
